Laboratory results reported in patent publication US10322032B2, “Absorbent article comprising a fragrance or odor control composition” (The Procter & Gamble Company, priority 2013, dated 2019).

How the values were obtained:
[1] = log P, n-octanol/water partition coefficient (EPA OPPTS 830.7550 shake flask method); format: physicochemical; details: partitioning between octanol and water; for logP: n-octanol/water
Description: The use of log P values is well known in the chemical arts as representing the relative affinity that a material has for partitioning between octanol and water, so that a material that partitions more readily into octanol would tend to be more lipophillic and have a higher log P value than a material that partitions less readily into octanol. […] 1996, under the title “Product Properties Test Guidelines—OPPTS 830.7550 Partition Coefficient (n-Octanol/Water), Shake flask method.” which description is incorporated herein by reference. In following this EPA method in all instances where a recommended procedure is described (such as number of rotations of the shaker) the recommended procedure should be followed. For the analytical determination of the substance in the two phases a skilled person will know what analytical method to use, gas chromatography (GC) can be preferably used, while HPLC can be used in case GC is not suitable.

[2] = Kovats Retention Index by gas chromatography on DB-5 column against n-alkane standards; format: physicochemical; details: GC, non-isothermal, C8-C22 n-alkane standards
Description: Kovats Index as it is known in the art, is defined as the selective retention of perfume raw materials (PRMs) onto chromatographic columns based on the retention volume of the substance with respect to that to a homologous series of n-alkane standards.
The Kovats Index in the present application can be experimentally derived using an Agilent Technologies 6890 gas chromatogram with Flame Ionization Detector (FID), or equivalent using a DB-5 (5% phenyl-methylpolysiloxane) column 30 m×0.25 mm i.d., with a 0.25 micron film thickness available from Agilent Technologies. Chromatographic conditions are 1 mL/min of helium carrier with constant flow programming, a temperature program of 50° C. to 300° C. at […] temperature 350° C., split injection at 300° C. Different chromatographic conditions may be required to achieve separation of the analytes of interest and can be readily adjusted by one skilled in the art. A linear alkane hydrocarbon standard mix (C8-C22 available from Aldrich Chemical Company or equivalent) is injected and the retention time for each component is recorded. The test sample (appropriately diluted in a suitable solvent) is injected under the same conditions, and the retention time for each component of interest is recorded. The Kovats Index under non-isothermal conditions is calculated for each component of interest in the test sample using the equation: KI=100n+100[(tsubstance−tn)/(tn+1−tn)] Where: • t=the uncorrected retention time of a peak • unknown=the peak of interest • n=the number of carbon atoms in the smaller alkane whose peak is adjacent to the peak of interest

Row | Compound | logP [1] | KI (Kovats Retention Index) [2] | Log P [1]
1 | CC(C)CCOC(=O)c1ccccc1O [Isoamyl salicylate] | 3.74 | 1616.4 | 
2 | O=C(OC1CCCCC1)c1ccccc1O [Cyclohexyl salicylate] | 4.15 | 1821 | 
3 | O=C1CCCCCCCCC/C=C/CCCO1 [Habanolide] |  | 1862.9 | 4.32
4 | O=C(OCc1ccccc1)c1ccccc1O [Benzyl salicylate] | 3.56 | 1920.3 | 
5 | CCC(=O)OCC(C)(C)OC(C)C1CCCC(C)(C)C1 (stereo not shown) [Helvetolide] |  | 1773 | 5.56
6 | CCCCCCOC(=O)c1ccccc1O [n-Hexyl salicylate] | 4.58 | 1765.1 | 
7 | CC(C)=CCOC(=O)c1ccccc1O [Prenyl salicylate] | 3.05 | 1655.3 | 
8 | Cc1ccc(OC(=O)c2ccccc2O)cc1 [p-Cresyl salicylate] | 4.06 | 1944.5 | 
9 | O=C1CCCCCCCCCCCCCCO1 [Exaltolide] | 4.81 | 1882 | 
10 | CCCCCOC(=O)c1ccccc1O [amyl salicylate] | 4.09 | 1668.8 | 
11 | O=C1CCCCC/C=C/CCCCCCCCO1 [trans-ambrettolide] |  | 1961.1 | 4.64
12 | CCCCC(CC)COC(=O)c1ccccc1O (stereo not shown) [2-Ethylhexyl salicylate] | 4.92 | 1889.5 | 
13 | O=C(Oc1ccccc1)c1ccccc1O [Phenyl salicylate] | 3.49 | 1851.1 | 
14 | CCCCOC(=O)c1ccccc1O [Butyl salicylate] | 3.58 | 1572.9 | 
